Experimental findings from ChEMBL document CHEMBL1201862, “PubChem BioAssay data set” (2004) are described below.

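Where inhibition never reached the appropriate level, the endpoint shown equals the highest concentration tested. Otherwise, values were interpolated linearly from a five-concentration, 48-hour dose response in 96-well plates. GI50: concentration for 50% inhibition of growth.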 Calls of active or inactive are those of the source. No stated cut-off is given here; in the data, active = GI50 up to about 1.1 µM and inactive = higher. Bounds are passed on as bounds.

Among the test systems are EKVX; SK-OV-3; OVCAR-8; SF-295; MOLT-4; TK-10; LOX IMVI; NCI-H23; RPMI-8226; IGROV-1; UO-31; HCC 2998; SK-MEL-2; UACC-62; HOP-92; OVCAR-4; HL-60.
Common to all, as to test: growth of human tumour cells (NCI), 48 h

In the case of `[O-][n+]1c(-c2ccccc2)c2nc3ccccc3nc2c2ccccc21`, the GI50 in the assay on EKVX, in the assay with SK-OV-3, in the assay on OVCAR-8, in the assay on SF-295, in the assay with MOLT-4 and in the assay with TK-10 was > 100 µM (inactive) each time. Moreover, the GI50 with LOX IMVI, in the assay with NCI-H23, in the assay on RPMI-8226, with IGROV-1, with UO-31 and in the assay with HCC 2998 was > 100 µM (inactive) in each case. Further, the GI50 in the assay with SK-MEL-2 is > 100 µM (inactive); in the assay on UACC-62, > 100 µM (inactive); in the assay on HOP-92, > 100 µM (inactive); in the assay with OVCAR-4, 5 µM (inactive).

With `Nc1ncnc2c1N=CN(Oc1ccccc1)N2`, the GI50 in the assay with EKVX, with SK-OV-3, with OVCAR-8, in the assay on SF-295, in the assay on MOLT-4 and with TK-10 was > 100 µM (inactive) throughout. In addition, the GI50 in the assay on NCI-H23, with RPMI-8226, in the assay with IGROV-1, in the assay with SK-MEL-2, in the assay on UACC-62 and in the assay on HOP-92 was > 100 µM (inactive) in each case. In the assay with OVCAR-4, the GI50 was > 100 µM (inactive).

`CCCN1CN(C(C(=O)N[C@@H]2C(=O)N3C2SC(C)(C)C3C(=O)O)c2ccc(O)cc2)CSC1=S` (stereo not given in full): the GI50 with HL-60, with EKVX, in the assay with SK-OV-3, in the assay with OVCAR-8, in the assay on SF-295 and in the assay with MOLT-4 was > 100 µM (inactive) in each case. Besides, the GI50 in the assay with TK-10 is > 100 µM (inactive); in the assay with LOX IMVI it was 97.9 µM (inactive); in the assay with NCI-H23, > 100 µM (inactive); in the assay with RPMI-8226, 62.1 µM (inactive); in the assay with IGROV-1, > 100 µM (inactive); in the assay with UO-31, > 100 µM (inactive). For the same compound, the GI50 in the assay on SK-MEL-2, with UACC-62, with HOP-92 and with OVCAR-4 was > 100 µM (inactive) throughout.

For `O=C1c2cccc(O)c2C(=O)c2c(O)cccc21` [DANTHRON], the GI50 is 98.9 µM (inactive) in the assay with EKVX; > 100 µM (inactive) with SK-OV-3; > 100 µM (inactive) in the assay on OVCAR-8; 55.6 µM (inactive) in the assay with SF-295; 40.1 µM (inactive) with MOLT-4; > 100 µM (inactive) in the assay with TK-10. For the same compound, the GI50 in the assay with LOX IMVI was 55.8 µM (inactive); in the assay with NCI-H23, > 100 µM (inactive); with RPMI-8226, 50.7 µM (inactive); with IGROV-1, > 100 µM (inactive); in the assay on UO-31 it was > 100 µM (inactive); in the assay with HCC 2998, 88.7 µM (inactive). Besides, the GI50 with SK-MEL-2 is > 100 µM (inactive); in the assay with UACC-62 it was 16 µM (inactive); with HOP-92 it was > 100 µM (inactive); in the assay with OVCAR-4, 26.3 µM (inactive).

For `O=C1/C(=C/c2ccccc2)CN(C(=O)OCC(Cl)(Cl)Cl)C/C1=C\c1ccccc1`, the GI50 in the assay with HL-60 is 0.897 µM (active); in the assay on EKVX, > 10 µM (inactive); with SK-OV-3, 7.48 µM (inactive); with OVCAR-8, 1.76 µM (inactive); in the assay with SF-295, 1.83 µM (inactive); in the assay with MOLT-4 it was 2.51 µM (inactive). Besides, the GI50 with TK-10 was 4.46 µM (inactive); in the assay with LOX IMVI it was 0.792 µM (active); in the assay on NCI-H23 it was 2.25 µM (inactive); in the assay on RPMI-8226, 0.0394 µM (active); in the assay on IGROV-1, 3.54 µM (inactive); with UO-31, 3.52 µM (inactive). The GI50 in the assay on SK-MEL-2 was 4.89 µM (inactive); in the assay with UACC-62, 2.71 µM (inactive).

As for `CCOC(=O)NC(=O)c1cn(C2OC(CO)C(O)C2O)c(=O)[nH]c1=O` (stereo not given), the GI50 in the assay on HL-60, in the assay on EKVX, with SK-OV-3, in the assay on OVCAR-8, in the assay with SF-295 and in the assay with MOLT-4 was > 100 µM (inactive) in each case. Besides, the GI50 with LOX IMVI, in the assay with RPMI-8226, with IGROV-1, with UO-31, with HCC 2998 and in the assay on SK-MEL-2 was > 100 µM (inactive) in each case. The GI50 in the assay with UACC-62 and with OVCAR-4 was > 100 µM (inactive) throughout.

Turning to `CNS(=O)(=O)NN(C)S(=O)(=O)c1ccc2ccccc2c1`, the GI50 with HL-60, with EKVX, in the assay on SK-OV-3, in the assay on OVCAR-8, with SF-295 and in the assay on MOLT-4 was > 100 µM (inactive) each time. For the same compound, the GI50 with TK-10, in the assay on LOX IMVI, in the assay on NCI-H23, in the assay with RPMI-8226, in the assay with IGROV-1 and in the assay on UO-31 was > 100 µM (inactive) throughout. The GI50 in the assay on HCC 2998, in the assay with SK-MEL-2, in the assay with UACC-62 and in the assay with OVCAR-4 was > 100 µM (inactive) each time.

`CCCC(=O)N[C@@H](Cc1cc(I)c(O)c(I)c1)C(=O)NCCCNCCCCNCCCNC(=O)[C@@H](N)CCCN=C(N)N`: the GI50 in the assay with HL-60 is 33.7 µM (inactive); in the assay with EKVX, > 100 µM (inactive); in the assay with OVCAR-8, > 100 µM (inactive); in the assay on SF-295 it was > 10 µM (inactive); in the assay with MOLT-4 it was 71.6 µM (inactive); in the assay with TK-10, > 100 µM (inactive). Moreover, the GI50 in the assay on LOX IMVI is 94 µM (inactive); with NCI-H23 it was 31.4 µM (inactive); in the assay on RPMI-8226 it was 40.6 µM (inactive); in the assay with IGROV-1, 29 µM (inactive); in the assay on UO-31 it was 29.8 µM (inactive); with HCC 2998, 42.3 µM (inactive). In the assay on UACC-62, the GI50 is 44.9 µM (inactive).

As to `CC(=O)CC(=O)ON(C)C(C)=O`, the GI50 in the assay with HL-60, in the assay on SK-OV-3, in the assay on OVCAR-8, in the assay with SF-295, in the assay on MOLT-4 and in the assay on TK-10 was > 100 µM (inactive) throughout. For the same compound, the GI50 with LOX IMVI was > 100 µM (inactive); in the assay with NCI-H23, 43.4 µM (inactive); in the assay with RPMI-8226, > 100 µM (inactive); in the assay on IGROV-1, > 100 µM (inactive); in the assay on UO-31, > 100 µM (inactive); in the assay with HCC 2998 it was > 100 µM (inactive). In addition, the GI50 in the assay on UACC-62 was > 100 µM (inactive); in the assay with OVCAR-4 it was 29.2 µM (inactive).

With `Nc1ccc(C(=O)/C=C/c2ccccc2O)cc1`, the GI50 with HL-60, in the assay on EKVX, in the assay on SK-OV-3, in the assay on OVCAR-8, in the assay with SF-295 and in the assay with MOLT-4 was > 100 µM (inactive) throughout. The GI50 with TK-10, in the assay on LOX IMVI, with NCI-H23, in the assay with IGROV-1, with UO-31 and in the assay with HCC 2998 was > 100 µM (inactive) each time. Further, the GI50 in the assay with SK-MEL-2, with UACC-62 and in the assay with OVCAR-4 was > 100 µM (inactive) throughout.

In the case of `C=C(C(=C)N1N=NC2C3CCC(C3)C21)N1N=NC2C3CCC(C3)C21` (stereo not given), the GI50 was 16.9 µM (inactive) with HL-60; > 100 µM (inactive) with OVCAR-8; > 100 µM (inactive) in the assay with SF-295; 41.1 µM (inactive) in the assay on MOLT-4; > 100 µM (inactive) in the assay on TK-10; 68.5 µM (inactive) in the assay on LOX IMVI. Besides, the GI50 with NCI-H23, in the assay on IGROV-1, in the assay on UO-31, with HCC 2998, in the assay with UACC-62 and with HOP-92 was > 100 µM (inactive) throughout. Besides, the GI50 in the assay with OVCAR-4 is > 100 µM (inactive).

`Cc1cc(N(CCC#N)CCC#N)ccc1/C=C(\NC(=O)/C=C/c1ccccc1)C(=O)N=[N+]=[N-]`: the GI50 is > 100 µM (inactive) with HL-60; > 100 µM (inactive) in the assay on EKVX; 55 µM (inactive) with SK-OV-3; > 100 µM (inactive) in the assay with OVCAR-8; 17.2 µM (inactive) with SF-295; > 100 µM (inactive) in the assay on MOLT-4. Besides, the GI50 in the assay on TK-10, in the assay with LOX IMVI, with NCI-H23, in the assay on RPMI-8226, in the assay with IGROV-1 and in the assay with UO-31 was > 100 µM (inactive) throughout. For the same compound, the GI50 in the assay with HCC 2998, in the assay with SK-MEL-2 and in the assay on UACC-62 was > 100 µM (inactive) each time.

For the compound `COc1c(Sc2ccccc2)cc(Sc2ccccc2)c2cccnc12`, the GI50 with EKVX was 28.2 µM (inactive); in the assay with SK-OV-3, > 100 µM (inactive); with OVCAR-8, 27.4 µM (inactive); in the assay on SF-295, 17.3 µM (inactive); with MOLT-4, 19.5 µM (inactive); with TK-10, 23.2 µM (inactive). The GI50 is 17.6 µM (inactive) with LOX IMVI; 19.5 µM (inactive) with NCI-H23; 17.6 µM (inactive) in the assay with RPMI-8226; 46.1 µM (inactive) with IGROV-1; 19.1 µM (inactive) in the assay on UO-31; 41.9 µM (inactive) with HCC 2998. The GI50 is 17.6 µM (inactive) with SK-MEL-2, 18.2 µM (inactive) with UACC-62 and 16.2 µM (inactive) with OVCAR-4.
